Measured values as given in patent US10828326B2, “Compositions and methods for treating and preventing venom related poisoning” (priority 2015, dated 2020).

Tests used:
[1] = test system: human plasma; assay: Thrombelastography of venom naïve human plasma with iron and/or CO addition (Example I); type: biochemical; conditions: baseline (venom naïve); 10 μM FeCl3 and/or 100 μM CORM-2; compared to plasma without any additions
Description: (§1) Two-hundred mg of lyophilized, pooled venom was obtained from four western diamondback rattlesnakes (Crotalus atrox) for experimentation. Venom was reconstituted in calcium-free phosphate buffered saline (PBS, Sigma-Aldrich, Saint Louis, Mo., USA) at a concentration of 20 mg/ml, aliquoted, and then stored at −80° C. until experimentation at the University of Arizona. Pooled human normal plasma (George King Bio-Medical, Overland Park, Kans., USA) anticoagulated with sodium citrate was rapidly thawed at 37° C. and used for experimentation. To assess the effects of pretreatment of fibrinogen with iron, CO, or both, 1% additions of PBS, ferric chloride (FeCl3, 99.9% pure, Sigma-Aldrich, Saint Louis, Mo., USA) in PBS, or CORM-2 (tricarbonyldichlororuthenium (II) dimer, a CO releasing molecule, Sigma-Aldrich, Saint Louis, Mo., USA) dissolved in dimethyl sulfoxide (DMSO, Sigma-Aldrich, Saint Louis, Mo., USA). The final concentrations of FeCl3 and CORM-2 were 10 μM and 100 μM, respectively; these concentrations are associated with nearly maximal augmenting effects on coagulation kinetics (see, Nielsen V G, et al., Blood Coagul Fibrinolysis 2014; 25:695-702). Plasma was exposed to these various agents for at least 5 min prior to incubations with venom.
(§2) The final volume for all subsequently described plasma sample mixtures was 359.4 μl. Sample composition consisted of 326 μl of plasma; 10 μl of tissue factor reagent (0.1% final concentration in distilled water; Diagnostica Stago S.A.S., Asnieres sur Seine, France) and 3.4 μl of PBS or venom (final concentration 0.5 μg/ml). […] The aforementioned plasma and venom mixtures were placed in a disposable cup in a computer-controlled Thrombelastograph® hemostasis system (Model 5000, Haemoscope Corp., Niles, Ill., USA) and incubated for 5 or 20 min at 37° C., with addition of 20 μl of 200 mM CaCl2) as the last step to initiate clotting. Data were collected at 37° C. for 15 min after 5 min of incubation, whereas samples incubated with venom for 20 min had data collected for 30 min, given the prolonged onset of coagulation and diminished rate of thrombus formation. The following elastic modulus-based parameters previously described (see, Nielsen, et al., 2014, Blood Coagul. Fibrinolysis 25:695-702; Nielsen, et al., 2011, Blood Coagul. Fibrinolysis 22: 443-447); Nielsen V G, et al., Blood Coagul Fibrinolysis 2014; 25:845-850) were determined: time to maximum rate of thrombus generation (TMRTG): this is the time interval (min) observed prior to maximum speed of clot growth; maximum rate of thrombus generation (MRTG): this is the maximum velocity of clot growth observed (dynes/cm^2/sec); and total thrombus generation (TTG, dynes/cm^2), the final viscoelastic resistance observed after clot formation.
(§3) Data are presented as mean+SD. A commercially available statistical program was used for one-way analysis of variance followed by Holm-Sidak post hoc analyses (SigmaStat 3.1, Systat Software, Inc., San Jose, Calif., USA). Graphics depicting viscoelastic data were generated with a commercially available program (OrigenPro 7.5, OrigenLab Corporation, Northampton, Mass., USA; CorelDRAW12, Corel Corporation, Mountain View, Calif., USA).

[2] = test system: Crotalus atrox venom; assay: Thrombelastography of human plasma pretreated with iron and/or CO, then incubated with Crotalus atrox venom (Example I); type: biochemical; conditions: 0.5 μg/ml venom, 5 min incubation
Description: as §1, §2, §3

SMILES: [Cl][Fe]([Cl])[Cl] [iron, ferric chloride]
- maximum rate of thrombus generation (MRTG) [1]: increases
- time to maximum rate of thrombus generation (TMRTG) [1]: significantly decreases
- total thrombus generation (TTG) [1]: does not affect
- maximum rate of thrombus generation (MRTG), change on venom exposure ([2]; vs matched venom naïve samples): significantly decreased
- maximum rate of thrombus generation (MRTG) ([2]; vs plasma without additions exposed to venom): significantly greater
- time to maximum rate of thrombus generation (TMRTG) ([2]; vs samples without iron/CO additions or with CO addition alone): significantly smaller
